# Source: patent US10441588B2, “Methods and compositions for treating bacterial infection” (Curators of the University of Missouri, priority 2012, dated 2019)
# Where a name gives a salt, the structure may show the parent alone. Read-outs that look alike come from different tables or passages of the source.
# Tests used:
# [1] = tested on: S. epidermis biofilm; experiment: S. epidermis biofilm inhibition, optical density, test/control; settings: for activity at 100 µM / activity at 5 µM / activity at 50 µM: Staphylococcus epidermidis; for activity at 100 µM: read-out: S. epidermis Biofilm inhibition 100 μM vs. (−) Control, 100 μM; for activity at 100 µM / S. epidermis Biofilm inhibition 10 μM vs. (−) Control / activity at 5 µM / activity at 50 µM: growth of biofilm test/control by optical density; for activity at 5 µM: read-out: S. epidermis Biofilm inhibition 5 μM vs. (−) Control, 5 μM; for activity at 50 µM: read-out: S. epidermis Biofilm inhibition 50 μM vs. (−) Control, 50 μM
# [2] = tested on: S. epidermis; experiment: S. epidermis growth inhibition, optical density, test/control; assay type: cell-based, Staphylococcus epidermidis; settings: for activity at 100 µM: Staphylococcus epidermidis, growth of bacteria test/control by optical density
# [3] = tested on: S. aureus; experiment: S. aureus growth inhibition, optical density, test/control; assay type: cell-based, Staphylococcus aureus; settings: growth of bacteria test/control by optical density; for activity at 100 µM: Staphylococcus aureus
# [4] = tested on: S. aureus biofilm; experiment: S. aureus biofilm inhibition, optical density, test/control; assay type: cell-based, Staphylococcus aureus; settings: for activity at 100 µM / activity at 10 µM / activity at 5 µM / activity at 50 µM: Staphylococcus aureus
# [5] = tested on: E. coli flagellin (fliC); experiment: microbe, parasite or virus in culture; assay type: cell-based; settings: Escherichia coli, 6 h; for activity at 5 µM: read-out: E. coli flagellin production, Relative Level vs. Control, 5 μM; for activity at 25 µM: read-out: E. coli flagellin production, Relative Level vs. Control, 25 μM
# [6] = 100 μM, growth of biofilm test/control by optical density
# [7] = growth of biofilm test/control by optical density
# [8] = 5 μM, growth of biofilm test/control by optical density, read-out: S. aureus Biofilm Inhibition 5 μM vs. (−) Control
# [9] = 50 μM, growth of biofilm test/control by optical density, read-out: S. aureus Biofilm Inhibition 50 μM vs. (−) Control
compound,measurement,setting,value
C=CCn1c(SCc2ccc(OC)cc2)nc2c(c1=O)C1(CCCCC1)Cc1ccccc1-2 [CCG-102483],activity at 100 µM,[1],78.6%
same,activity at 100 µM,[2],129%
C=CCn1c(NCC)nc2c(c1=O)C1(CCCCC1)Cc1ccccc1-2 [CCG-203043],S. epidermis Biofilm inhibition 10 μM vs. (−) Control,[1],0.169
same,S. epidermidis biofilm formation,"[1]; RP62A strain, microtiter plate",strong inhibition
same,activity at 100 µM,[1],45%
same,activity at 100 µM,[3],70%
same,S. epidermidis bacterial growth,[2]; RP62A strain,without inhibition of bacterial growth
same,activity at 100 µM,[4]; [6],43.5%
C=CCn1c(NCC)nc2c(c1=O)C(C)(C)Cc1ccccc1-2 [CCG-203804],S. epidermis Biofilm inhibition 10 μM vs. (−) Control,[1],0.858
same,activity at 100 µM,[3],66.2%
same,activity at 100 µM,[2],103%
same,activity at 100 µM,[4]; [6],10.3%
"COCCSc1nc(OCC2OCCO2)c2c(n1)-c1ccccc1CC2(C)C [CCG-204030, 4-((1,3-dioxolan-2-yl)methoxy)-2-((2-methoxyethyl)thio)-5,5-dimethyl-5,6-dihydrobenzo[h]-quinazoline]",activity at 100 µM,[1],73.9%
same,Growth Inhibition 100 μM vs. (−) Control,[3],0.919
same,activity at 100 µM,[2],111%
same,S. aureus Biofilm Inhibition 100 μM vs. (−) Control,[4]; [6],0.589
"COCCOCCOc1nc(SCCOC)nc2c1C(C)(C)Cc1ccccc1-2 [CCG-204033, 4-(2-(2-Methoxyethoxy)ethoxy)-2-((2-methoxyethyl)thio)-5,5-dimethyl-5,6-dihydrobenzo[h]-quinazoline]",activity at 100 µM,[1],75.6%
same,activity at 100 µM,[3],83.8%
same,activity at 100 µM,[2],103%
same,activity at 100 µM,[4]; [6],59.9%
"COCCSc1nc(OCCCO)c2c(n1)-c1ccccc1CC2(C)C [CCG-205384, 3-((2-((2-Methoxyethyl)thio)-5,5-dimethyl-5,6-dihydrobenzo[h]quinazolin-4-yl)oxy)propan-1-ol]",S. epidermis Biofilm inhibition 10 μM vs. (−) Control,[1],1.095
same,activity at 100 µM,[3],93.5%
same,activity at 100 µM,[2],100%
same,activity at 100 µM,[4]; [6],16%
"COCCSc1nc2c(c(=O)n1CCCO)C(C)(C)Cc1ccccc1-2 [CCG-205390, 3-(3-Hydroxypropyl)-2-((2-methoxyethyl)thio)-5,5-dimethyl-5,6-dihydrobenzo[h]quinazolin-4(3H)-one]",S. epidermis Biofilm inhibition 10 μM vs. (−) Control,[1],0.921
same,activity at 100 µM,[3],89.1%
same,activity at 100 µM,[4]; [6],52.5%
"C=CCn1c(SCC)nc2c(c1=O)C(C)(C)Cc1cc(OCCN(CC)CC)ccc1-2 [CCG-205396, 3-Allyl-8-(2-(diethylamino)ethoxy)-2-(ethylthio)-5,5-dimethyl-5,6-dihydrobenzo[h]-quinazolin-4(3H)-one]",activity at 100 µM,[1],3.7%
same,activity at 100 µM,[2],13%
same,activity at 10 µM,[4]; [7],68.4%
same,activity at 100 µM,[4]; [6],6.2%
"C=CCn1c(SCCOC)nc2c(c1=O)C1(CCN(C(=O)CCCC)CC1)Cc1ccccc1-2 [CCG-206227, 3-Allyl-2-((2-methoxyethyl)thio)-1′-pentanoyl-3H-spiro[benzo[h]quinazoline-5,4′-piperidin]-4(6H)-one]",biofilm formation by S. epidermis,[1],inhibit biofilm formation
same,S. epidermis Biofilm inhibition 10 μM vs. (−) Control,[1],0.943
same,activity at 100 µM,[2],141%
same,biofilm formation by S. aureus,[4],inhibit biofilm formation
same,activity at 10 µM,[4]; [7],52.8%
same,activity at 100 µM,[4]; [6],27%
"C=CCn1c(SCCOC)nc2c(c1=O)C(C)(C)Cc1cc(C(=O)NCCO)ccc1-2 [CCG-206239, 3-allyl-N-(2-hydroxyethyl)-2-((2-methoxyethyl)thio)-5,5-dimethyl-4-oxo-1,2,3,4,5,6-hexahydrobenzo[h]quinazoline-8-carboxamide]",activity at 100 µM,[2],111%
same,activity at 100 µM,[4]; [6],32.7%
CCSc1nc2c(c(=O)n1C)C(C)(C)Cc1ccc(OC)cc1-2 [CCG-206353],S. epidermis Biofilm inhibition 10 μM vs. (−) Control,[1],1.053
same,activity at 100 µM,[1],34.7%
same,activity at 100 µM,[3],92.1%
same,activity at 10 µM,[4]; [7],49.4%
same,activity at 100 µM,[4]; [6],32.3%
"C=CCn1c(SCC)nc2c(c1=O)C1(CCNCC1)Cc1cc(OC)ccc1-2 [CCG-206664, 3-allyl-2-(ethylthio)-8-methoxy-3H-spiro[benzo[h]quinazoline-5,4′-piperidin]-4(6H)-one hydrochloride]",activity at 5 µM,[1],87.7%
same,activity at 5 µM,"[4]; read-out: S. aureus Biofilm Inhibition 5 μM vs. (−) Control, 5 μM, growth of biofilm test/control by optical density",89%
same,activity at 50 µM,"[4]; read-out: S. aureus Biofilm Inhibition 50 μM vs. (−) Control, 50 μM, growth of biofilm test/control by optical density",2.8%
"C=CCn1c(SCCOC)nc2c(c1=O)C1(CCN(C(=O)OC(C)(C)C)C1)Cc1ccccc1-2 (stereo not shown) [CCG-208860, tert-butyl 3-allyl-2-((2-methoxyethyl)thio)-4-oxo-4,6-dihydro-3H-spiro[benzo[h]quinazoline-5,3′-pyrrolidine]-1′-carboxylate]",activity at 5 µM,[1],85%
same,activity at 50 µM,[1],79.8%
same,activity at 5 µM,[4]; [8],70.4%
same,activity at 50 µM,[4]; [9],46.4%
"C=CCn1c(SCCOC)nc2c(c1=O)C1(CCN(Cc3ccccc3)CC1)Cc1cc(OC)ccc1-2 [CCG-208982, 3-allyl-1′-benzyl-8-methoxy-2-((2-methoxyethyl)thio)-3H-spiro[benzo[h]quinazoline-5,4′-piperidin]-4(6H)-one]",activity at 5 µM,[1],98.7%
same,activity at 50 µM,[1],66%
same,activity at 5 µM,[4]; [8],76.5%
same,activity at 50 µM,[4]; [9],31.9%
"C=CCn1c(SCCOC)nc2c(c1=O)C1(CCN(C(=O)NC)CC1)Cc1cc(OC)ccc1-2 [CCG-211970, 3-allyl-8-methoxy-2-((2-methoxyethyl)thio)-N-methyl-4-oxo-4,6-dihydro-3H-spiro[benzo[h]quinazoline-5,4′-piperidine]-1′-carboxamide]",activity at 5 µM,[1],79%
same,activity at 50 µM,[1],67%
same,activity at 5 µM,[4]; [8],69%
same,activity at 50 µM,[4]; [9],58%
"COc1ccc2c(c1)CC1(CCNCC1)c1c(OC)nc(SCC#N)nc1-2 [CCG-212014, 2((4,8-dimethoxy-6H-spiro[benzo[h]quinazoline-5,4′-piperidin]-2-yl)thio)acetonitrile]",activity at 5 µM,[1],105%
same,activity at 50 µM,[1],63%
same,activity at 5 µM,[4]; [8],77%
same,activity at 50 µM,[4]; [9],52%
"COc1ccc2c(c1)CC1(CCNCC1)c1c(OCC#N)nc(SCC#N)nc1-2 [CCG-212015, 2-((4-(cyanomethoxy)-8-methoxy-6H-spiro[benzo[h]quinazoline-5,4′-piperidin]-2-yl)thio)acetonitrile]",activity at 5 µM,[1],93%
same,activity at 50 µM,[1],48%
same,activity at 5 µM,[4]; [8],94%
same,activity at 50 µM,[4]; [9],33%
COc1ccc2c(c1)CC(C)(C)c1c-2nc(SCC(F)(F)F)n(C)c1=O [IV501],activity at 5 µM,[5],36.2%
same,activity at 25 µM,[5],47.5%
COc1ccc2c(c1)CC(C)(C)c1c-2nc(SCC(F)(F)F)[nH]c1=O [IVG-00601-00A01],activity at 5 µM,[5],85.3%
same,activity at 25 µM,[5],3.96%
COc1ccc2c(c1)CC(C)(C)c1c(OC)nc(SCC(F)(F)F)nc1-2 [IVG-00607-00A01],activity at 5 µM,[5],63.4%
same,activity at 25 µM,[5],27.5%
COc1ccc2c(c1)CC(C)(C)c1c-2nc(S)n(C)c1=O [IVG-00608-00A01],activity at 5 µM,[5],82.8%
same,activity at 25 µM,[5],48.9%
COc1ccc2c(c1)CC(C)(C)c1c-2nc(NCCO)n(C)c1=O [IVG-00610-00A01],activity at 5 µM,[5],31.6%
same,activity at 25 µM,[5],8.83%
COc1ccc2c(c1)CC(C)(C)c1c-2nc(NCC(F)(F)F)n(C)c1=O [IVG-00611-00A01],activity at 5 µM,[5],19.6%
same,activity at 25 µM,[5],13.6%
COc1ccc2c(c1)CC(C)(C)c1c-2nc(N(C)CCO)n(C)c1=O [IVG-00612-00A01],activity at 5 µM,[5],18.1%
same,activity at 25 µM,[5],12.9%
CCNc1nc2c(c(=O)n1C)C(C)(C)Cc1cc(OC)ccc1-2 [IVG-00613-00A01],activity at 5 µM,[5],34.2%
same,activity at 25 µM,[5],13.9%
COc1ccc2c(c1)CC(C)(C)c1c-2nc(OCC(F)(F)F)n(C)c1=O [IVG-00614-00A01],activity at 5 µM,[5],24.4%
same,activity at 25 µM,[5],26.2%
